# Measured values published in patent US20260256789A1, “METHODS FOR TREATMENT OF CANCER” (Frontier Medicines Corporation, priority 2022, published 2026).
# Target: T1, KRAS G12C (GMPPNP-loaded) and cRAF Ras-binding domain (Homo sapiens, UniProt P01116, C118S/C51S/C80L/G12C)
# T1 construct: truncated version comprising amino acids 1-169
# Experiment: Inhibition of KRAS G12C and cRAF binding (AlphaScreen)
# Conditions: KRAS G12C preloaded with GTP analogue GMPPNP, 2 hours preincubation
# How it was run: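 Compounds (10-point, 1:3 from 50 μM; 2% DMSO) were incubated 2 h at room temperature with 0.5 nM GMPPNP-preloaded truncated Cys-light KRAS G12C, then 60-90 min with 0.75 nM GST-RBD of cRAF and AlphaScreen beads. Signal at 570 nm gave IC50 by 4-parameter regression, and a biotin-AviTag-GST counter assay excluded interference with the AlphaScreen readout.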
# T1 sequence (P01116 1-169 isoform P01116-2 G12C/C51S/C80L/C118S): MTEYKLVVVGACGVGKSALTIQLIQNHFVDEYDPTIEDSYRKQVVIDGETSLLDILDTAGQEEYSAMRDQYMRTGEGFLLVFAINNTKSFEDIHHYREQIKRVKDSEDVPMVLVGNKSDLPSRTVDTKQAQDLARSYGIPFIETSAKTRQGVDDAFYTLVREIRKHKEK
row,IC50 [nM],SMILES
1,≥ 500,"C=CC(=O)N1CC(CN(C)c2nc(OCC34CCCN3CCC4)nc3c(F)c(-c4nc(N)cc(C)c4C4CC4)ncc23)C1 [Example 131, 1-(3-(((7-(6-amino-3-cyclopropyl-4-methylpyridin-2-yl)-8-fluoro-2-((tetrahydro-1H-pyrrolizin-7a(5H)-yl)methoxy)pyrido[4,3-d]pyrimidin-4-yl)(methyl)amino)methyl)azetidin-1-yl)prop-2-en-1-one]"
2,< 10,Cc1cc(N)nc(-c2ncc3c(N(C)[C@@H]4CCN(C#N)C4)nc(OC[C@@]45CCCN4C[C@H](F)C5)nc3c2F)c1C(F)(F)F [Example 239]
3,< 10,CN1CC[C@@H]1/C=C/C(=O)N1CC[C@@H](N(C)c2nc(OC[C@@]34CCCN3C[C@H](F)C4)nc3c(F)c(-c4nc(N)cc5cccc(F)c45)ncc23)C1 [Example 90]
4,< 10,Cc1cc(N)nc(-c2ncc3c(N(C)CC4CN(C(=O)/C=C/c5nc(C(C)C)no5)C4)nc(OC[C@@]45CCCN4C[C@H](F)C5)nc3c2F)c1C(F)(F)F [Example 153]
5,< 10,"Cc1cc(N)nc(-c2ncc3c(N(C)[C@@H]4CCN(C(=O)/C=C/c5nc(C6CC6)no5)C4)nc(OC[C@@]45CCCN4C[C@H](F)C5)nc3c2F)c1C(F)(F)F [Example 63, (E)-1-((R)-3-((7-(6-amino-4-methyl-3-(trifluoromethyl)pyridin-2-yl)-8-fluoro-2-(((2R,7aS)-2-fluorotetrahydro-1H-pyrrolizin-7a(5H)-yl)methoxy)pyrido[4,3-d]pyrimidin-4-yl)(methyl)amino)pyrrolidin-1-yl)-3-(3-cyclopropyl-1,2,4-oxadiazol-5-yl)prop-2-en-1-one]"
6,< 10,Cc1cc(N)nc(-c2ncc3c(N(C)[C@@H]4CCN(C(=O)/C=C/c5nc(C(C)(C)O)no5)C4)nc(OC[C@@]45CCCN4C[C@H](F)C5)nc3c2F)c1C(F)(F)F [Example 139]
7,≥ 500,"C=CC(=O)N1CC(CN(C)c2nc(OC[C@@]34CCCN3C[C@H](F)C4)nc3c(F)c(-c4nc(N)cc(C)c4C)ncc23)C1 [Example 146, 1-(3-(((7-(6-amino-3,4-dimethylpyridin-2-yl)-8-fluoro-2-(((2R,7aS)-2-fluorotetrahydro-1H-pyrrolizin-7a(5H)-yl)methoxy)pyrido[4,3-d]pyrimidin-4-yl)(methyl)amino)methyl)azetidin-1-yl)prop-2-en-1-one]"
8,≥ 500,C=CC(=O)N1CC[C@@H](N(C)c2nc(OC[C@@]34CCCN3C[C@H](F)C4)nc3c(F)c(-c4cccn5nccc45)ncc23)C1 [Example 234]
9,100 to 500,CN(c1nc(OC[C@@]23CCCN2C[C@H](F)C3)nc2c(F)c(-c3cccc(Cl)c3C3CC3)ncc12)[C@@H]1CCN(C(=O)C#CCN2CCOCC2)C1 [Example 223]

# The next lines start with the compound.
row,SMILES,IC50 [nM]
1,"Cc1nsc(/C=C/C(=O)N2CC(CN(C)c3nc(OC[C@@]45CCCN4C[C@H](F)C5)nc4c3C[C@H](C)[C@@H](c3nc(N)cc(C)c3C(F)(F)F)C4)C2)n1 (single isomer, unassigned) [Example 174]",≥ 500
2,CN(c1nc(OC[C@@]23CCCN2C[C@H](F)C3)nc2c(F)c(-c3cccc(Cl)c3C3CC3)ncc12)[C@@H]1CCN(C(=O)/C=C/CN2C[C@H]3C[C@@H]2CO3)C1 [Example 245],10 to 100
3,C=CC(=O)N1CC[C@@H](N(C)c2nc(OC[C@@]34CCCN3C[C@H](F)C4)nc3c(F)c(-c4nccc(C)c4C(F)(F)F)ncc23)C1 [Example 211],≥ 500
4,"C=CC(=O)N1CC(CN(C)c2nc(OC[C@@]34CCCN3C[C@H](F)C4)nc3c(F)c(-c4nc(N)cc(C)c4C(F)(F)F)ncc23)C1 [Example 64, 1-(3-(((7-(6-amino-4-methyl-3-(trifluoromethyl)pyridin-2-yl)-8-fluoro-2-(((2R,7aS)-2-fluorotetrahydro-1H-pyrrolizin-7a(5H)-yl)methoxy)pyrido[4,3-d]pyrimidin-4-yl)(methyl)amino)methyl)azetidin-1-yl)prop-2-en-1-one]",10 to 100
5,"C=CC(=O)N1CC[C@@H](N(C)c2nc(OC[C@@]34CCCN3C[C@H](F)C4)nc3c2C[C@H](C)[C@@H](c2nc(N)cc(C)c2C(F)(F)F)C3)C1 [Example 145, 1-((R)-3-(((6S,7S)-7-(6-amino-4-methyl-3-(trifluoromethyl)pyridin-2-yl)-2-(((2R,7aS)-2-fluorotetrahydro-1H-pyrrolizin-7a(5H)-yl)methoxy)-6-methyl-5,6,7,8-tetrahydroquinazolin-4-yl)(methyl)amino)pyrrolidin-1-yl)prop-2-en-1-one]",≥ 500
6,"C=CC(=O)N1CC[C@@H](N(C)c2nc(OC[C@@]34CCCN3C[C@H](F)C4)nc3c(F)c(-c4nc(N)cc5cccc(Cl)c45)ncc23)C1 [Example 74, 1-((R)-3-((7-(3-amino-8-chloroisoquinolin-1-yl)-8-fluoro-2-(((2R,7aS)-2-fluorohexahydro-1H-pyrrolizin-7a-yl)methoxy)pyrido[4,3-d]pyrimidin-4-yl)(methyl)amino)pyrrolidin-1-yl)prop-2-en-1-one]",10 to 100
7,Cc1cc(N)nc(-c2ncc3c(N(C)CC4CN(C(=O)/C=C/CN5CCOCC5)C4)nc(OC[C@@]45CCCN4C[C@H](F)C5)nc3c2F)c1C(F)(F)F [Example 129],100 to 500
8,CN(C)C/C=C/C(=O)N1CC[C@@H](N(C)c2nc(OC[C@@]34CCCN3C[C@H](F)C4)nc3c(F)c(-c4cccc(Cl)c4C4CC4)ncc23)C1 [Example 184],10 to 100
9,CN(c1nc(OC[C@@]23CCCN2C[C@H](F)C3)nc2c(F)c(-c3cccc(Cl)c3C3CC3)ncc12)[C@@H]1CCN(C(=O)C#C[C@@]2(C)CCCN2)C1 [Example 215],< 10
10,CN(c1nc(OC[C@@]23CCCN2C[C@H](F)C3)nc2c(F)c(-c3cccc(Cl)c3C3CC3)ncc12)[C@@H]1CCN(C(=O)C#C[C@]2(C)CCCN2)C1 [Example 193],< 10
11,"CC(C)c1noc(/C=C/C(=O)N2CC[C@@H](N(C)c3nc(OC[C@@]45CCCN4C[C@H](F)C5)nc4c(F)c(-c5nc(N)cc6cccc(Cl)c56)ncc34)C2)n1 [Example 60, (E)-1-((R)-3-((7-(3-amino-8-chloroisoquinolin-1-yl)-8-fluoro-2-(((2R,7aS)-2-fluorohexahydro-1H-pyrrolizin-7a-yl)methoxy)pyrido[4,3-d]pyrimidin-4-yl)(methyl)amino)pyrrolidin-1-yl)-3-(3-isopropyl-1,2,4-oxadiazol-5-yl)prop-2-en-1-one]",< 10
12,"C=CC(=O)N1CC[C@@H](N(C)c2nc(OC[C@@]34CCCN3C[C@H](F)C4)nc3c(F)c(-c4cc(O)ccc4C4CC4)ncc23)C1 [Example 31, 1-((R)-3-((7-(2-cyclopropyl-5-hydroxyphenyl)-8-fluoro-2-(((2R,7aS)-2-fluorotetrahydro-1H-pyrrolizin-7a(5H)-yl)methoxy)pyrido[4,3-d]pyrimidin-4-yl)(methyl)amino)pyrrolidin-1-yl)prop-2-en-1-one]",10 to 100
13,C=CC(=O)N1CC[C@@H](N(C)c2nc(OC[C@@]34CCCN3C[C@H](F)C4)nc3c(F)c(-c4cc(O)c(C)cc4C4CC4)ncc23)C1 [Example 228],≥ 500
14,"C=CC(=O)N1CC[C@@H](N(C)c2nc(OC[C@@]34CCCN3C[C@H](F)C4)nc3c(F)c(-c4cc(N)nc(C)c4C(F)(F)F)ncc23)C1 [Example 107, 1-((R)-3-((7-(6-amino-2-methyl-3-(trifluoromethyl)pyridin-4-yl)-8-fluoro-2-(((2R,7aS)-2-fluorotetrahydro-1H-pyrrolizin-7a(5H)-yl)methoxy)pyrido[4,3-d]pyrimidin-4-yl)(methyl)amino)pyrrolidin-1-yl)prop-2-en-1-one]",10 to 100
